Measurements published in EPA's ToxValDB 9.5 (doi:10.2903/j.efsa.2013.3373).
Where “and” joins values, the source holds several entries; their conditions need not be identical. Identical values can stand only once.

What was measured:
[1] = tested on: Anas platyrhynchos
[2] = tested on: Apis mellifera; details: acute, duration: 96 hours, mortality
[3] = tested on: Bibionidae; details: chronic/long-term; duration: 28 days; development
[4] = tested on: Canidae; details: subchronic; duration: 3 months; oral; gavage; Dog Other; organ weight
[5] = tested on: Chironomus tentans; details: acute; duration: 10 days; mortality
[6] = tested on: Colinus virginianus; details: for LD50: acute, oral, mortality
[7] = tested on: Cyprinodon variegatus; details: chronic/long-term; duration: 41 days; mortality
[8] = tested on: Danio rerio; details: chronic; duration: 148 days
[9] = tested on: Daphnia magna; details: chronic/long-term; duration: 21 days; reproduction
[10] = tested on: Mus musculus; details: acute, oral, mortality
[11] = tested on: Neomysis kadiakensis; details: chronic/long-term; duration: 28 days; reproduction
[12] = tested on: Oncorhynchus mykiss; details: mortality
[13] = tested on: Rattus norvegicus; details: for NOAEL: reproduction developmental
[14] = tested on: Tagia sp.

N#Cc1ccc(CC(=NNC(=O)Nc2ccc(OC(F)(F)F)cc2)c2cccc(C(F)(F)F)c2)cc1 (mixture of isomers) [Metaflumizone]
LD50 ([1]; acute, oral, unspecified, mortality): > 2020 mg/kg-day | NOEL ([1]; reproductive, reproduction): < 4.4 mg/kg-day and 1.8 mg/kg-day | LD50 ([2]; dermal): 1.65 µg/piece | LD50 ([2]; oral, unspecified): 2.43 µg/piece | NOEC [3]: 2.56 µg/L | NOAEL [4]: 6 mg/kg-day | LC50 [5]: 1800 µg/kg | LD50 ([6]; diet): 306 mg/kg-day | LD50 [6]: > 2020 mg/kg-day | NOEL ([6]; reproduction developmental, reproduction): 0.53 mg/kg-day | NOEC [7]: 1.15 µg/L | NOEC [8]: 0.015 mg/L | NOEC [9]: 1.47 µg/L | LD50 ([10]; duration: 7 days, diet): 101 mg/kg-day | LD50 [10]: > 5000 mg/kg-day | NOEC [11]: 0.654 µg/L | LC50 ([12]; acute, duration: 96 hours): > 0.228 µg/mL | NOEC ([12]; chronic/long-term, duration: 93 days): 1.47 µg/L | LD50 ([13]; acute, oral, mortality): > 5000 mg/kg-day | NOAEL ([13]; body weight): 40 mg/kg-day | NOAEL ([13]; reproduction): 20 mg/kg-day | LC50 ([14]; acute, duration: 14 days, mortality): > 1000 mg/kg | NOEC ([14]; chronic/long-term): 6.92 mg/kg
